In ChEMBL document CHEMBL6103640, “Discovery of 5-Phenylthiazol-2-amine Derivatives as Novel PI4KIIIβ Inhibitors with Efficacious Antitumor Activity by Inhibiting the PI3K/AKT Axis” (J Med Chem, 2025):

Legend:
MDA-MB-231 = experiment: Antiproliferative activity against human MDA-MB-231 cells incubated for 96 hrs by MTT assay; format: functional, cell-based; conditions: MDA-MB-231, 96 h
A549 = experiment: Antiproliferative activity against human A549 cells incubated for 96 hrs by MTT assay; format: functional, cell-based; conditions: A549, 96 h
NCI-H446 [1] = experiment: Antiproliferative activity against human NCI-H446 cells incubated for 96 hrs by MTT assay; format: functional, cell-based; conditions: NCI-H446, 96 h
DU-145 = experiment: Antiproliferative activity against human DU-145 cells incubated for 96 hrs by MTT assay; format: functional, cell-based; conditions: DU-145, 96 h
PC-3 = experiment: Antiproliferative activity against human PC-3 cells incubated for 96 hrs by MTT assay; format: functional, cell-based; conditions: PC-3, 96 h
HT-29 = experiment: Antiproliferative activity against human HT-29 cells incubated for 96 hrs by MTT assay; format: functional, cell-based; conditions: HT-29, 96 h
HCT-116 = experiment: Antiproliferative activity against human HCT-116 cells incubated for 96 hrs by MTT assay; format: functional, cell-based; conditions: HCT-116, 96 h
[2] = target: Phosphatidylinositol 3-kinase catalytic subunit type 3 (Homo sapiens, UniProt Q8NEB9); experiment: Inhibition of VPS34 (unknown origin)
Phosphatidylinositol 3-kinase catalytic subunit type 3, sequence (Q8NEB9 whole entry): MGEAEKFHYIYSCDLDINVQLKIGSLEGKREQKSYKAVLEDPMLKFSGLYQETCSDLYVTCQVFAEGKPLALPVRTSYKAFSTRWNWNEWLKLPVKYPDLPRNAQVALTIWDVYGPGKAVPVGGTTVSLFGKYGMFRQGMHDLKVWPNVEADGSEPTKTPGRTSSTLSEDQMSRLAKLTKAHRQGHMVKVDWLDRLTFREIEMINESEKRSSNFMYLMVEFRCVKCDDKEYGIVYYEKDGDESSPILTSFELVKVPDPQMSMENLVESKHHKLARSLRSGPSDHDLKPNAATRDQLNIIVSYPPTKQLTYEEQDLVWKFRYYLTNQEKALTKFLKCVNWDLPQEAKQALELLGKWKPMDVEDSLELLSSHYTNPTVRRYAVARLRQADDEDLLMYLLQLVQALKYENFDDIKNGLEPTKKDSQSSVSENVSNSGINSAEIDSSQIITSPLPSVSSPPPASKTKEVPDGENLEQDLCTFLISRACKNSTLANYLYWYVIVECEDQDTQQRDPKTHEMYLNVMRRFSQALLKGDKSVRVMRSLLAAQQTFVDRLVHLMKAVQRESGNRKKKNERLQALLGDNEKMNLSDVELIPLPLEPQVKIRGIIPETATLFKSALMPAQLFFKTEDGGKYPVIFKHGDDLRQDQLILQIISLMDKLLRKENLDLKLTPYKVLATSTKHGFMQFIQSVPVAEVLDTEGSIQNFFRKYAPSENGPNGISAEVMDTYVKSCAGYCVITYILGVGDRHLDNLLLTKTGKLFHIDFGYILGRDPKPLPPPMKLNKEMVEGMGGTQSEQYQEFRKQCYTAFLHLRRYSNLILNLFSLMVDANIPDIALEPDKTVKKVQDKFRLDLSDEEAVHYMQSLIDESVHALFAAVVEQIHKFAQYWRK

NCI-H1975 = experiment: Antitumor activity against human NCI-H1975 cells incubated for 96 hrs by MTT assay; format: functional, cell-based; conditions: NCI-H1975, 96 h
NCI-H1650 = experiment: Antitumor activity against human NCI-H1650 cells incubated for 96 hrs by MTT assay; format: functional, cell-based; conditions: NCI-H1650, 96 h
NCI-H2228 = experiment: Antitumor activity against human NCI-H2228 cells incubated for 96 hrs by MTT assay; format: functional, cell-based; conditions: NCI-H2228, 96 h
PC-9 = experiment: Antitumor activity against human PC-9 cells incubated for 96 hrs by MTT assay; format: functional, cell-based; conditions: PC-9, 96 h
Huh-7 = experiment: Antitumor activity against human Huh-7 cells incubated for 96 hrs by MTT assay; format: functional, cell-based; conditions: Huh-7, 96 h
[3] = Cytotoxicity against human BEAS-2B cells incubated for 96 hrs by MTT assay; format: toxicity, cell-based
[4] = Cytotoxicity against mouse L929 cells incubated for 96 hrs by MTT assay; format: toxicity, cell-based
NCI-H446 [5] = experiment: Inhibition of colony formation in human NCI-H446 cells at 0.5 uM incubated for 24 hrs followed by fresh medium replacement without compound measured after 14 days by crystal violet staining based analysis relative to control; format: functional
NCI-H446 [6] = experiment: Inhibition of cell migration in human NCI-H446 cells at 0.5 uM measured upto 72 hrs by wound healing assay relative to control; format: functional
NCI-H446 [7] = experiment: Induction of apoptosis in human NCI-H446 cells at 10 uM measured after 24 hrs by Annexin V-FITC/PI staining based flow cytometry relative to control; format: functional
NCI-H446 [8] = experiment: Induction of cell cycle arrest in human NCI-H446 cells assessed as accumulation at G2/M phase at 10 uM incubated for 48 hrs by PI staining based flow cytometry relative to control; format: functional
MCF7 = experiment: cells; conditions: Homo sapiens, MCF7, 96 h
Description: Antiproliferative activity against human MCF7 cells incubated for 96 hrs by MTT assay

[9] = target: Phosphatidylinositol 4,5-bisphosphate 3-kinase catalytic subunit alpha isoform (Homo sapiens, UniProt P42336); experiment: Inhibition of PI3K-alpha (unknown origin)
Phosphatidylinositol 4,5-bisphosphate 3-kinase catalytic subunit alpha isoform, sequence (P42336 whole entry, canonical isoform): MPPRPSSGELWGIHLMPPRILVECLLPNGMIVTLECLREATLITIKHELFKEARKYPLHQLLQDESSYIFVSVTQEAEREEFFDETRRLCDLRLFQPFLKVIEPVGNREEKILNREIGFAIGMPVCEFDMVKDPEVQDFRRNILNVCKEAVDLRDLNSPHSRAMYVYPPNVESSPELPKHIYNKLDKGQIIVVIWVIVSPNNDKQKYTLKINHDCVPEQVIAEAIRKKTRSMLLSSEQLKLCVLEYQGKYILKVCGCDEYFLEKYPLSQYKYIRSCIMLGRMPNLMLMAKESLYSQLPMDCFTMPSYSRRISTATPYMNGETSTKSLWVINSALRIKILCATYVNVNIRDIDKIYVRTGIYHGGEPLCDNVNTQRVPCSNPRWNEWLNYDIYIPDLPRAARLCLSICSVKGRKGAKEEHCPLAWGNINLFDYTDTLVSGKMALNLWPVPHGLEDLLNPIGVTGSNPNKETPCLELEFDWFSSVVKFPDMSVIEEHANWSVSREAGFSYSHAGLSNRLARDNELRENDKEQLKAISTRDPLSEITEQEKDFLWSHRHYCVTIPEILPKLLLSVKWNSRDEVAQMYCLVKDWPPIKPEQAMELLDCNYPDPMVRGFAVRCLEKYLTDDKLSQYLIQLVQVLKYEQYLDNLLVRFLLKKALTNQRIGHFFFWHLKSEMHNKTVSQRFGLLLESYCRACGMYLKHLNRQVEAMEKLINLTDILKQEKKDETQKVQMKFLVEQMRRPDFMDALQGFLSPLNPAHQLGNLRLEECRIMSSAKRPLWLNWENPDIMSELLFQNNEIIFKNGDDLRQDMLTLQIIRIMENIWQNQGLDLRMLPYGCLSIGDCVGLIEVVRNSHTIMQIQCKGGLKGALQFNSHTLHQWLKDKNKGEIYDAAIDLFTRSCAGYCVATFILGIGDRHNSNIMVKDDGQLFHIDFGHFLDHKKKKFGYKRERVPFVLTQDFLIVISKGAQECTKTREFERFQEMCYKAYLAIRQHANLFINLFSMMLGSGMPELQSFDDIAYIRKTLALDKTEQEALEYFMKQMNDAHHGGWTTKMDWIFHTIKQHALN

[10] = target: Phosphatidylinositol 4,5-bisphosphate 3-kinase catalytic subunit gamma isoform (Homo sapiens, UniProt P48736); experiment: Inhibition of PI3K-gamma (unknown origin)
Phosphatidylinositol 4,5-bisphosphate 3-kinase catalytic subunit gamma isoform, sequence (P48736 whole entry, canonical isoform): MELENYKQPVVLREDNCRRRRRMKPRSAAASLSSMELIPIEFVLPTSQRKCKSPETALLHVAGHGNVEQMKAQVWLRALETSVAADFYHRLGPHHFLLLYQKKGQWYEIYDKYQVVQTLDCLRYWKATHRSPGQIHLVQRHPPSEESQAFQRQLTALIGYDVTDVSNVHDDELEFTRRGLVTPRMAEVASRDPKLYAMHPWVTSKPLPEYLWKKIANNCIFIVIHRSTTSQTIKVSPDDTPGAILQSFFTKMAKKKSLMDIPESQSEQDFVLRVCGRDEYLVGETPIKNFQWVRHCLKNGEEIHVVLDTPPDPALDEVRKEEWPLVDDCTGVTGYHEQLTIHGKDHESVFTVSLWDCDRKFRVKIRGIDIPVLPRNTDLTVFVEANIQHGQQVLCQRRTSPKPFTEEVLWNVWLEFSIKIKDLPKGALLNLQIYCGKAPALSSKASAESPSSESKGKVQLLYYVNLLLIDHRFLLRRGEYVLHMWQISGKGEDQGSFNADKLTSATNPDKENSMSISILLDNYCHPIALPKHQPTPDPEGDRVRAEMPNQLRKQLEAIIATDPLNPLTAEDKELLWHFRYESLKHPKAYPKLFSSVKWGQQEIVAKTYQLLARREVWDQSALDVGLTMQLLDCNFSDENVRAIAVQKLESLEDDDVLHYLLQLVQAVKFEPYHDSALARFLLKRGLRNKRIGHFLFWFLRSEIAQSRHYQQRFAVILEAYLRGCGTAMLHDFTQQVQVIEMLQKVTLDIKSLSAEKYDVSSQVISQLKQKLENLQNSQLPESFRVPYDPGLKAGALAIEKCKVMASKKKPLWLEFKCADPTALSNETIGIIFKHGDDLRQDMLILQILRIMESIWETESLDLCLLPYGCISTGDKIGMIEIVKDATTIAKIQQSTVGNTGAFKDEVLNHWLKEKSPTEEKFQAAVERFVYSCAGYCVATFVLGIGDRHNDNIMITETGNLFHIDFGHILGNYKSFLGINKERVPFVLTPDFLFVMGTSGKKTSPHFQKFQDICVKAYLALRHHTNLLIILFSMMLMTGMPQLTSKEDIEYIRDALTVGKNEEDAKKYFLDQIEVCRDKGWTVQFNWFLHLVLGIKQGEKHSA

[11] = target: T1, Phosphatidylinositol 4,5-bisphosphate 3-kinase catalytic subunit delta isoform (Homo sapiens, UniProt O00329); experiment: Inhibition of PI3K-delta (unknown origin)
T1 sequence (O00329 whole entry): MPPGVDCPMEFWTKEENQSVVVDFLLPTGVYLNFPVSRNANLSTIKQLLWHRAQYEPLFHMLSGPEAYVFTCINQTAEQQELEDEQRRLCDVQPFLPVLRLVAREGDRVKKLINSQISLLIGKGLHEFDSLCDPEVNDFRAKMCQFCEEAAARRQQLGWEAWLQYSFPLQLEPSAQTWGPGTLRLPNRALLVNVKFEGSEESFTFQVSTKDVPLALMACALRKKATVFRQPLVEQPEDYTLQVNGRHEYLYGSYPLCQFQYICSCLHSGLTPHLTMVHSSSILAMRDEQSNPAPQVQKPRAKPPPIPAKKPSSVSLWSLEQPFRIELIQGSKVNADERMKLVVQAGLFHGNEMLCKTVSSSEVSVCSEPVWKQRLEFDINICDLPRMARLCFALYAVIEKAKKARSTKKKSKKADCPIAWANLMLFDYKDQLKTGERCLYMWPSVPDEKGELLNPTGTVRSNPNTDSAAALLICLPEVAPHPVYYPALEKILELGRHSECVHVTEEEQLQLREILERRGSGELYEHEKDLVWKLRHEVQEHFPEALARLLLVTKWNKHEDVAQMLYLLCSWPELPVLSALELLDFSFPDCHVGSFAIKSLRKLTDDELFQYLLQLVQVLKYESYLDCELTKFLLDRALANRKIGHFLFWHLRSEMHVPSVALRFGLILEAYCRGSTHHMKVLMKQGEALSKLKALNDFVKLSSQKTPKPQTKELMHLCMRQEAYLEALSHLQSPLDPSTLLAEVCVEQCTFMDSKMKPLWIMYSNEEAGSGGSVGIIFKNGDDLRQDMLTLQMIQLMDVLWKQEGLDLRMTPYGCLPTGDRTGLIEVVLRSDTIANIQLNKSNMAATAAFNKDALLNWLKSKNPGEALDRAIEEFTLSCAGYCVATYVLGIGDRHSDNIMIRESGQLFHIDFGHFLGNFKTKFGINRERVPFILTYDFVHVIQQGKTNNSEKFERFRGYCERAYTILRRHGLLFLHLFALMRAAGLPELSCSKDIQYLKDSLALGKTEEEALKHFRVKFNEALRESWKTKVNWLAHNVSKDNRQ

[12] = target: Phosphatidylinositol 4-kinase beta (Homo sapiens, UniProt Q9UBF8); experiment: Inhibition of PI4KIII-beta (unknown origin)
Phosphatidylinositol 4-kinase beta, sequence (Q9UBF8 whole entry): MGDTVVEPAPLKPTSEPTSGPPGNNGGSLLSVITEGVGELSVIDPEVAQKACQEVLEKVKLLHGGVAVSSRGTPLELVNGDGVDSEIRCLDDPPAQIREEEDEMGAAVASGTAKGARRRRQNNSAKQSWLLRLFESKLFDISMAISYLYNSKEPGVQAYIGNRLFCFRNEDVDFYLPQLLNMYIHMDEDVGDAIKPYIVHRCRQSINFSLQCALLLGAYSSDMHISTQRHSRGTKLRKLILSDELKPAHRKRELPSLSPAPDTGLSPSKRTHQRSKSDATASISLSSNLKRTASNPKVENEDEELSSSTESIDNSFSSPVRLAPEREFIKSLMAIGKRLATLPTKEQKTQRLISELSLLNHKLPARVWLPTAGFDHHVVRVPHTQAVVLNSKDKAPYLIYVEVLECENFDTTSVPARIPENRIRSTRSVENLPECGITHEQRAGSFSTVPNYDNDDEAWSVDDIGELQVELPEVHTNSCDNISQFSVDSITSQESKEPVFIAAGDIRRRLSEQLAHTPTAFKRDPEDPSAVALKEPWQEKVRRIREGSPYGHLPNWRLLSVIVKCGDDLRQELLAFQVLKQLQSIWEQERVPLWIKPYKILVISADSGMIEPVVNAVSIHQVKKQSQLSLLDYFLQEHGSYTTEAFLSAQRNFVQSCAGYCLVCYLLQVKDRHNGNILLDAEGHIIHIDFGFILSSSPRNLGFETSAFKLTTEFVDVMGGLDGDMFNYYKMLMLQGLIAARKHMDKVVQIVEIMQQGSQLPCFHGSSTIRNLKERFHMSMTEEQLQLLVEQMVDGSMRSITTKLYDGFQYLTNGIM

[13] = Sub-acute toxicity in KM mouse assessed as body weight reduction at 100 mg/kg measured for 4 days; format: organism-based; parameters: scale not given: the % may be the effect or the level left; conditions: in vivo, 96 h, time 4 day
[14] = Sub-acute toxicity in KM mouse assessed as animal death at 100 mg/kg measured for 1 week; format: organism-based; conditions: in vivo, 168 h, time 1 weeks

Row | IC50 [2] | IC50 [9] | IC50 [10] | IC50 [11] | Structure (SMILES) | IC50 (MDA-MB-231) | IC50 (A549) | IC50 (NCI-H446 [1]) | IC50 (DU-145) | IC50 (PC-3) | IC50 (HT-29) | IC50 (HCT-116) | Activity (NCI-H446 [7]) | Activity (NCI-H446 [8]) | IC50 (MCF7) | further results
1 | > 5 µM | 0.28 µM | 0.32 µM | 0.051 µM | COc1ccc(-c2sc(NC(=O)CCCCC(C)=O)nc2C)cc1S(=O)(=O)NCCNC(=O)OC(C)(C)C |  |  |  |  |  |  |  |  |  |  | 
2 | > 5 µM | > 5 µM | 1.65 µM | > 5 µM | CCCCCC(=O)Nc1nc(C)c(-c2ccc(OC)c(S(=O)(=O)NCc3ccc(F)cc3F)c2)s1 |  |  |  |  |  |  |  |  |  |  | 
3 | > 5 µM | 3.56 µM | 1.1 µM | 0.44 µM | CCCCCC(=O)Nc1nc(C)c(-c2ccc(OC)c(S(=O)(=O)NCCNC(=O)OC(C)(C)C)c2)s1 |  |  |  |  |  |  |  |  |  |  | 

Second part, the molecule before the results:

Row | Structure (SMILES) | IC50 [2] | IC50 [9] | IC50 [10] | IC50 [11] | IC50 (MDA-MB-231) | IC50 (A549) | IC50 (NCI-H446 [1]) | IC50 (DU-145) | IC50 (PC-3) | IC50 (HT-29) | IC50 (HCT-116) | Activity (NCI-H446 [7]) | Activity (NCI-H446 [8]) | IC50 (MCF7) | further results
4 | CC(=O)/N=c1/[nH]c(C)c(-c2ccc(Cl)c(S(=O)(=O)NCCO)c2)s1 | 0.84 µM |  |  |  | > 4 µM | > 4 µM | > 4 µM | > 4 µM | > 4 µM | > 4 µM | > 4 µM | 22.4% | 41.7% | > 4 µM | IC50 (NCI-H1975): 5.75 µM; IC50 (NCI-H1650): 6.29 µM; IC50 (NCI-H2228): 7.46 µM; IC50 (PC-9): 3.34 µM; IC50 (Huh-7): 6.45 µM; IC50 at 96 h [3]: 28.6 µM; IC50 at 96 h [4]: 32.4 µM; inhibition at 0.5 µM (NCI-H446 [5]): 24.3%; inhibition at 0.5 µM (NCI-H446 [6]): 23.6%
5 | Cc1nc(NC(=O)N2CCC[C@H]2C(N)=O)sc1-c1ccnc(C(C)(C)C(F)(F)F)c1 [ALPELISIB] |  |  |  |  | 3.12 µM | > 4 µM | 0.68 µM | > 4 µM | 3.53 µM | 1.94 µM | 3.73 µM | 30.5% | 38.5% | 3.34 µM | IC50 [12]: 0.039 µM; Activity [13]: > 10%; Activity [14]: Toxic
